In patent US20190225650A1, “PEPTIDOMIMETIC MACROCYCLES AND USE THEREOF IN REGULATING HIF1ALPHA” (AILERON THERAPEUTICS, INC., priority 2013, published 2019):
Bridge positions count the residues as written; N and C are the ends. Square brackets hold non-standard residues; d marks the D form. Peptide text beside a SMILES is read from it. S5 = C=CCCC[C@](C)(N)C(=O)O; Nle = CCCC[C@H](N)C(=O)O; Dap = NC[C@H](N)C(=O)O

Tested on: HRE-bla ME-180 cells
Assay: Reporter gene assay (HRE-bla ME-180 HIF reporter, GeneBLAzer)
Type: cell-based, human
Conditions: for EC50: 24 hour normoxia
Description: The following reagents were used:
• DMEM+GutaMAX: (#10569044, Invitrogen) • Black clear bottom plates: (#3603, Costar) • HRE-bla-ME-180 cell line: (#K1644, Invitrogen) • Gene-Blazer reagent & protocol: (#K1096, Invitrogen) • Plate reader: Biotek Synergy 2 • Chetomin: (C9623, Sigma)
4 hours prior to experiment: HRE-bla ME-180 cells were seeded at a density of 20,000 cells/well in a volume of 180 μl in black clear bottom 96-well plates. 180 μl of assay medium was added to the cell-free control wells. Incubation was conducted at 37° C., 5% CO2 for 4 hours.
Diluted chetomin was used as a positive control. Chetomin was diluted in 100% DMSO to a 10 mM stock concentration. A 1 mM stock of chetomin was prepared in 100% DMSO. Then the 1 mM chetomin stock was serially diluted in 1:4 in 100% DMSO. Finally, 50, 12.5, 3.125, 0.78, 0.2, 0.05 μM stock of chetomin in 5% DMSO/water were prepared by adding 114 μL water+6 μL chetomin in DMSO.
Test peptides were diluted before use. The test peptides were diluted in 100% DMSO to a 10 mM stock concentration. Then each 10 mM peptide stock was diluted in 1:3 in 100% DMSO. Finally, 300, 100, 33.3, 11.1, 3.7, 1.2 μM stock of each peptide in 5% DMSO/water were prepared by adding 129.2 μL water+4 μL peptide in DMSO.
20 μl of peptide, chetomin dilution, or DMSO/water control were added to the appropriate wells of a plate to achieve 200 μL final volumes in 0.3% DMSO/media. The plate was first incubated for 18-20 hours in normoxia incubator (37° C. in humidified 5% CO2, 20% O2 atmosphere). Then the plate was transferred to hypoxia incubator for 24 hours (37° C. in humidified 5% CO2, 1% O2 atmosphere)
6× LiveBLAzer™-FRET B/G (CCF4-AM) Substrate Mixture was prepared according to CellSensor™ HRE-bla ME-180 Cell-based Assay Protocol (Invitrogen) and added into each well. Solution A (CCF4-AM) was reconstituted in DMSO to a working concentration of 1 mM, divided in aliquots, and stored at −20° C. The 6× LiveBLAzer-FRET B/G (CCF4-AM) Substrate mixture was prepared by mixing 6 μl of Solution A, 60 μl of Solution B, and 934 μl Solution C.
The plates were removed from incubator and equilibrated to RT for a few minutes. Then 20 μl of 6× Substrate mixture was added to each well. The plates were then incubated at room temperature for 3 hr in the dark and read at 409 Ex/460Em and 409Ex/530Em using the “GeneBlazer-Tungsten with export” program on the Synergy 2.
The average percentage of maximum inhibition was obtained by comparing the peptide treated cells (30 μM) to DMSO vehicle control treated cells. The results are shown in the columns “ME-180 HIF Reporter EC50 (μM) −24 hr normoxia” and “18 h Avg % max inhibition at top conc (HIF Rptr-24 hrsnormoxia) (μM)” of Table 6.

Structure (SMILES)	18 h Avg % max inhibition at top conc (HIF Rptr-24 hrs normoxia) (μM)	EC50 [µM]
CCCC[C@H](NC(=O)[C@H](CC(C)C)NC(=O)[C@@H](NC(=O)[C@H](CCC(=O)O)NC(=O)[C@H](CCC(=O)O)NC(=O)[C@H](CC(=O)O)NC(=O)[C@@H](NC(=O)[C@H](Cc1ccccc1)NC(C)=O)[C@@H](C)CC)C(C)C)C(=O)N[C@@]1(C)CCCC=CCCC[C@@](C)(C(=O)N[C@@H](CCCC)C(=O)N[C@@H](C)C(=O)N[C@@H](CC(C)C)C(=O)N[C@@H](CC(=O)O)C(=O)N[C@@H](CCC(=O)O)C(=O)N[C@H](C(N)=O)[C@@H](C)CC)NC(=O)[C@H]([C@@H](C)CC)NC(=O)[C@H](C(C)C)NC(=O)[C@H](CC(C)C)NC1=O [SP-41] (Ac-FIDEEVL[Nle][S5]LVI[S5][Nle]ALDEI-NH2; staple 9-13)	++++ (≥50: ++++)	15 to 30
CCCC[C@H](NC(=O)[C@H](CC(C)C)NC(=O)[C@@H](NC(=O)[C@H](CCC(=O)O)NC(=O)[C@H](CCC(=O)O)NC(=O)[C@H](CC(=O)O)NC(=O)[C@@H](NC(=O)[C@H](Cc1ccccc1)NC(C)=O)[C@@H](C)CC)C(C)C)C(=O)N[C@@]1(C)CCCC=CCCC[C@@](C)(C(=O)N[C@@H](CCCC)C(=O)N[C@@H](C)C(=O)N[C@@H](CC(C)C)C(=O)N[C@@H](CC(=O)O)C(=O)N[C@@H](CCCNC(=N)N)C(=O)N[C@H](C(=O)N[C@@H](CCC(=O)O)C(N)=O)[C@@H](C)CC)NC(=O)[C@H]([C@@H](C)CC)NC(=O)[C@H](C(C)C)NC(=O)[C@H](CC(C)C)NC1=O [SP-43] (Ac-FIDEEVL[Nle][S5]LVI[S5][Nle]ALDRIE-NH2; staple 9-13)	+++ (≤25 but <50: +++)	> 30
CCCC[C@H](NC(=O)[C@H](CC(C)C)NC(=O)[C@@H](NC(=O)[C@H](CCC(=O)O)NC(=O)[C@H](CCC(=O)O)NC(=O)[C@H](CC(=O)O)NC(=O)[C@@H](NC(=O)[C@H](Cc1ccccc1)NC(C)=O)[C@@H](C)CC)C(C)C)C(=O)N[C@@]1(C)CCCC=CCCC[C@@](C)(C(=O)N[C@@H](CCCC)C(=O)N[C@@H](C)C(=O)N[C@@H](CC(C)C)C(=O)N[C@@H](CC(=O)O)C(=O)N[C@@H](CCCNC(=N)N)C(=O)N[C@H](C(N)=O)[C@@H](C)CC)NC(=O)[C@H]([C@@H](C)CC)NC(=O)[C@H](C(C)C)NC(=O)[C@H](CO)NC1=O [SP-51] (Ac-FIDEEVL[Nle][S5]SVI[S5][Nle]ALDRI-NH2; staple 9-13)	+++ (≤25 but <50: +++)	5 to 15
CCCC[C@H](NC(=O)[C@H](CC(C)C)NC(=O)[C@@H](NC(=O)[C@H](CCC(=O)O)NC(=O)[C@H](CCC(=O)O)NC(=O)[C@H](CC(=O)O)NC(=O)[C@@H](NC(=O)[C@H](Cc1ccccc1)NC(C)=O)[C@@H](C)CC)C(C)C)C(=O)N[C@@]1(C)CCCC=CCCC[C@@](C)(C(=O)N[C@@H](CO)C(=O)N[C@@H](C)C(=O)N[C@@H](CC(C)C)C(=O)N[C@@H](CC(=O)O)C(=O)N[C@@H](CCCNC(=N)N)C(=O)N[C@H](C(N)=O)[C@@H](C)CC)NC(=O)[C@H]([C@@H](C)CC)NC(=O)[C@H](C(C)C)NC(=O)[C@H](CC(C)C)NC1=O [SP-54] (Ac-FIDEEVL[Nle][S5]LVI[S5]SALDRI-NH2; staple 9-13)	++++ (≥50: ++++)	≤ 5
CCCC[C@H](NC(=O)[C@H](CC(C)C)NC(=O)[C@@H](NC(=O)[C@H](CCC(=O)O)NC(=O)[C@H](CCC(=O)O)NC(=O)[C@H](CC(=O)O)NC(=O)[C@@H](NC(=O)[C@H](Cc1ccccc1)NC(C)=O)[C@@H](C)CC)C(C)C)C(=O)N[C@@]1(C)CCCC=CCCC[C@@](C)(C(=O)N[C@@H](CCCC)C(=O)N[C@@H](CO)C(=O)N[C@@H](CC(C)C)C(=O)N[C@@H](CC(=O)O)C(=O)N[C@@H](CCCNC(=N)N)C(=O)N[C@H](C(N)=O)[C@@H](C)CC)NC(=O)[C@H]([C@@H](C)CC)NC(=O)[C@H](C(C)C)NC(=O)[C@H](CC(C)C)NC1=O [SP-55] (Ac-FIDEEVL[Nle][S5]LVI[S5][Nle]SLDRI-NH2; staple 9-13)	++++ (≥50: ++++)	5 to 15
CCCC[C@H](NC(=O)[C@H](CC(C)C)NC(=O)[C@@H](NC(=O)[C@H](CN)NC(=O)[C@H](CCC(=O)O)NC(=O)[C@H](CC(=O)O)NC(=O)[C@@H](NC(=O)[C@H](Cc1ccccc1)NC(C)=O)[C@@H](C)CC)C(C)C)C(=O)N[C@@]1(C)CCCC=CCCC[C@@](C)(C(=O)N[C@@H](CCCC)C(=O)N[C@@H](C)C(=O)N[C@@H](CC(C)C)C(=O)N[C@@H](CC(=O)O)C(=O)N[C@@H](CCCNC(=N)N)C(=O)N[C@H](C(N)=O)[C@@H](C)CC)NC(=O)[C@H]([C@@H](C)CC)NC(=O)[C@H](C(C)C)NC(=O)[C@H](CC(C)C)NC1=O [SP-63] (Ac-FIDE[Dap]VL[Nle][S5]LVI[S5][Nle]ALDRI-NH2; staple 9-13)	+++ (≤25 but <50: +++)	5 to 15
CCCC[C@H](NC(=O)[C@]1(C)CCCC=CCCC[C@](C)(NC(=O)[C@H](C)NC(=O)[C@H](CC(C)C)NC(=O)[C@@H](NC(=O)[C@H](CCC(=O)O)NC(=O)[C@H](CCC(=O)O)NC(=O)[C@H](CC(=O)O)NC(=O)[C@@H](NC(=O)[C@H](Cc2ccccc2)NC(C)=O)[C@@H](C)CC)C(C)C)C(=O)N[C@@H](CC(C)C)C(=O)N[C@@H](C(C)C)C(=O)N[C@@H]([C@@H](C)CC)C(=O)N1)C(=O)N[C@@H](C)C(=O)N[C@@H](CC(C)C)C(=O)N[C@@H](CC(=O)O)C(=O)N[C@@H](CCCNC(=N)N)C(=O)N[C@H](C(N)=O)[C@@H](C)CC [SP-16] (Ac-FIDEEVLA[S5]LVI[S5][Nle]ALDRI-NH2; staple 9-13)	++++ (≥50: ++++)	≤ 5
CCCC[C@H](NC(=O)[C@]1(C)CCCC=CCCC[C@](C)(NC(=O)[C@H](CC(=O)O)NC(=O)[C@H](CC(C)C)NC(=O)[C@@H](NC(=O)[C@H](CCC(=O)O)NC(=O)[C@H](CCC(=O)O)NC(=O)[C@H](CC(=O)O)NC(=O)[C@@H](NC(=O)[C@H](Cc2ccccc2)NC(C)=O)[C@@H](C)CC)C(C)C)C(=O)N[C@@H](CC(C)C)C(=O)N[C@@H](C(C)C)C(=O)N[C@@H]([C@@H](C)CC)C(=O)N1)C(=O)N[C@@H](C)C(=O)N[C@@H](CC(C)C)C(=O)N[C@@H](CC(=O)O)C(=O)N[C@@H](CCCNC(=N)N)C(=O)N[C@H](C(N)=O)[C@@H](C)CC [SP-34] (Ac-FIDEEVLD[S5]LVI[S5][Nle]ALDRI-NH2; staple 9-13)	++++ (≥50: ++++)	5 to 15
CCCC[C@H](NC(=O)[C@H](CC(C)C)NC(=O)[C@@H](NC(=O)[C@H](CCC(=O)O)NC(=O)[C@H](CCC(=O)O)NC(=O)[C@H](CC(=O)O)NC(=O)[C@@H](NC(=O)[C@H](CCC(=O)O)NC(C)=O)[C@@H](C)CC)C(C)C)C(=O)N[C@@]1(C)CCCC=CCCC[C@@](C)(C(=O)N[C@@H](CCCC)C(=O)N[C@@H](C)C(=O)N[C@@H](CC(C)C)C(=O)N[C@@H](CC(=O)O)C(=O)N[C@@H](CCCNC(=N)N)C(=O)N[C@H](C(N)=O)[C@@H](C)CC)NC(=O)[C@H]([C@@H](C)CC)NC(=O)[C@H](C(C)C)NC(=O)[C@H](CC(C)C)NC1=O [SP-30] (Ac-EIDEEVL[Nle][S5]LVI[S5][Nle]ALDRI-NH2; staple 9-13)	++ (≤10 but <25: ++)	> 30
CCCC[C@H](NC(=O)[C@H](CC(C)C)NC(=O)[C@@H](NC(=O)[C@H](CCC(=O)O)NC(=O)[C@H](CCC(=O)O)NC(=O)[C@H](CC(=O)O)NC(=O)[C@@H](NC(=O)[C@H](Cc1ccccc1)NC(=O)[C@H](CC(=O)O)NC(C)=O)[C@@H](C)CC)C(C)C)C(=O)N[C@@]1(C)CCCC=CCCC[C@@](C)(C(=O)N[C@@H](CCCC)C(=O)N[C@@H](C)C(=O)N[C@@H](CC(C)C)C(=O)N[C@@H](CC(=O)O)C(=O)N[C@@H](CCCNC(=N)N)C(=O)N[C@H](C(N)=O)[C@@H](C)CC)NC(=O)[C@H]([C@@H](C)CC)NC(=O)[C@H](C(C)C)NC(=O)[C@H](CC(C)C)NC1=O [SP-29] (Ac-DFIDEEVL[Nle][S5]LVI[S5][Nle]ALDRI-NH2; staple 10-14)	++ (≤10 but <25: ++)	> 30
